A short description of assay [1]: (§1) MBL Inhibitory Activity in Constructed E. coli Cells Expressing MBLs: a. Transfer 50 μl LB with 0.8 mM IPTG (0.4 mM final concentration in assay) to each wellb. Add 1 μl inhibitor/positive control (500/1000 μM final concentration in assay) to selected wellsc. Add 50 μl overnight culture (=1) to each welld. Incubate in plate reader at 37° C. for 20 min with shakinge. Add 5 μl nitrocefin (3.2 mM) to selected wells with a multichannel pipettef. Incubate the plate in the plate reader for 3 hours, measuring nitrocefin hydrolysis at A482 every minute, with shaking in-betweeng. Measure endpoint at A600 to see how inhibitor alone effects bacterial growthh. Centrifuge the plate at 2800 rpm for 10 min, and transfer 50 μl to clean wellsi. Measure A482 endpoint.

For assay [2], the target named is Metallo-beta-lactamase type 2 (Bacteria, UniProt C7C422). The description is as §1.
Sequence of Metallo-beta-lactamase type 2 (C7C422 whole entry): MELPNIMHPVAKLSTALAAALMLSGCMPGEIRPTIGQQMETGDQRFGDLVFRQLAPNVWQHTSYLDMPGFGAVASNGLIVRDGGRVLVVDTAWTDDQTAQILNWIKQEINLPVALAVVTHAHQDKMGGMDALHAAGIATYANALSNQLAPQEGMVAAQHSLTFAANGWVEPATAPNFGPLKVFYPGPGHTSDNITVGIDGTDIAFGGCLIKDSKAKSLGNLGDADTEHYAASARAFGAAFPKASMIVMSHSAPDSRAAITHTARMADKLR

Take `COc1ccc(Cn2cc(CN(Cc3ccccn3)Cc3ccccn3)nn2)cc1`: the IC50 – broadly, the concentration that inhibits the measured activity by half – in assay [1] came to 2260 nM; in assay [2], 380 nM.

Source of the values: ChEMBL document CHEMBL5726725, “Inhibitors of metallo-beta-lactamase (MBL) comprising a zinc chelating moiety” (2019).
